According to patent US11649255B2, “Indazoles as hematopoietic progenitor kinase 1 (HPK1) inhibitors and methods using same” (1st Biotherapeutics, Inc., priority 2020, dated 2023):
Read-outs that look alike come from different tables or passages of the source.

Experiments:
recombinant human HPK1 = recombinant human HPK1 (Homo sapiens (Human), UniProt Q92918); assay: HPK1 kinase assay (ADP-Glo); type: biochemical; settings: 25 μM ATP, MBP substrate
Procedure, shortened: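 Activity was read as ADP formed, detected by ADP-Glo luminescence after the reaction of 5 ng recombinant human HPK1 with MBP and ATP (stocks 0.5 μg/μl and 25 μM) for 40 min at 30 °C. Buffer was Tris pH 7.5 with MgCl2, BSA and DTT, with compound in 0.5% DMSO. IC50 came from inhibition curves.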

[1] = tested on: human peripheral blood pan T cells; assay: IFNγ and IL-2 analysis of human peripheral pan T cells; type: cell-based; settings: T-cell, CD3/CD28 bead stimulation, 100 nM Prostaglandin E2, 24 hr
Experimental: IFNγ and IL-2 Analysis of Human Peripheral Pan T Cells
Human peripheral blood pan T cells were purchased from STEMCELL™ Technologies Inc. Human peripheral blood pan T cells were thawed and suspended in DMEM media (10% FBS and 10 Penicillin/Streptomycin). 8×10^4 T cells were seeded in 96-well plate and incubated with various concentration of compounds and 100 nM Prostaglandin E2 for 1 hr. T cells were stimulated with Dynabeads Human T-Activator CD3/CD28 (Life Technologies) at a 1:3 cells: beads ratio. […] Data were analyzed with an MESO Quickplex SQ120 (Mesoscale Discovery).
In Table 3, the values represent + for >1000 nM, ++ 200-1,000 nM, +++ for <200 nM and − for not determined.

[2] = IFNγ secretion, read-out: IFNγ (EC50)
[3] = IL-2 secretion, read-out: IL-2 (EC50)

Sequence of recombinant human HPK1 (Q92918 whole entry): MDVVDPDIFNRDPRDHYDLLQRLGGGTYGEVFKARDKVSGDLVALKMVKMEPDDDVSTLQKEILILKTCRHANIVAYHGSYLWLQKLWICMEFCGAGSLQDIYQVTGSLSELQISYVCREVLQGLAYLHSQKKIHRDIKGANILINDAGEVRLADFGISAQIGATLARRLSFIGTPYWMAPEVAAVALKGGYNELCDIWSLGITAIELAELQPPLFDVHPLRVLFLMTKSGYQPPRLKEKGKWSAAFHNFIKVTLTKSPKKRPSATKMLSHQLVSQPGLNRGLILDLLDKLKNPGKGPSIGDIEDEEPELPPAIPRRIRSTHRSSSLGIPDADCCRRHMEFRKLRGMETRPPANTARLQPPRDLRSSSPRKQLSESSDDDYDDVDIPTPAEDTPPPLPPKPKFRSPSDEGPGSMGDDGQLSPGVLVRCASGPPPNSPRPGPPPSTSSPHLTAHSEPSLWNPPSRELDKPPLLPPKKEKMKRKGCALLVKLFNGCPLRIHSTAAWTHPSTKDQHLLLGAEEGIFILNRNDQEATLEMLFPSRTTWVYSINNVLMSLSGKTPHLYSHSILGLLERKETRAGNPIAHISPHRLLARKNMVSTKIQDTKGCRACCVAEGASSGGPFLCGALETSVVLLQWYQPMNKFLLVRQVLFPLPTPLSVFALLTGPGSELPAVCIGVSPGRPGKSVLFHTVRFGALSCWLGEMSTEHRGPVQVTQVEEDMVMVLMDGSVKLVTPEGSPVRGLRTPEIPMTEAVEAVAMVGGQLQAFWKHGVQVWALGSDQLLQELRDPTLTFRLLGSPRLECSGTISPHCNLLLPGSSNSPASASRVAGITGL

| SMILES | IC50 (recombinant human HPK1) | EC50 [1, 2] | EC50 [1, 3] |
| --- | --- | --- | --- |
| CN(C)c1c(F)c(Cl)c(-c2ccc3nc(NC(=O)[C@H]4C[C@H]4F)cn3c2)c2cn[nH]c12 [Example 334, (1R,2R)-N-(6-(5-chloro-7-(dimethylamino)-6-fluoro-1H-indazol-4-yl)imidazo[1,2-a]pyridin-2-yl)-2-fluorocyclopropane-1-carboxamide] | < 100 nM | 200 to 1000 nM | 200 to 1000 nM |
| CC(C)Nc1c(F)c(Cl)c(-c2ccc3nc(NC(=O)[C@@H]4C[C@@H]4F)cn3c2)c2cn[nH]c12 [Example 359, (1S,2S)-N-(6-(5-chloro-6-fluoro-7-(isopropylamino)-1H-indazol-4-yl)imidazo[1,2-a]pyridin-2-yl)-2-fluorocyclopropane-1-carboxamide] | < 100 nM | 200 to 1000 nM | 200 to 1000 nM |
| CN(c1c(F)c(Cl)c(-c2ccc3nc(NC(=O)[C@@H]4C[C@@H]4F)cn3c2)c2cn[nH]c12)C1CC1 [Example 361, (1S,2S)-N-(6-(5-chloro-7-(cyclopropyl(methyl)amino)-6-fluoro-1H-indazol-4-yl)imidazo[1,2-a]pyridin-2-yl)-2-fluorocyclopropane-1-carboxamide] | < 100 nM | 200 to 1000 nM | > 1000 nM |
| CN(C)c1c(F)c(Cl)c(-c2ccn3nc(NC(=O)[C@@H]4C[C@@H]4F)cc3c2)c2cn[nH]c12 [Example 484, (1S,2S)-N-(5-(5-chloro-7-(dimethylamino)-6-fluoro-1H-indazol-4-yl)pyrazolo[1,5-a]pyridin-2-yl)-2-fluorocyclopropane-1-carboxamide] | < 100 nM | < 200 nM | 200 to 1000 nM |
| CSc1c(F)c(C)c(-c2ccn3nc(NC(=O)[C@@H]4C[C@@H]4F)cc3c2)c2cn[nH]c12 [Example 488, (1S,2S)-2-fluoro-N-(5-(6-fluoro-5-methyl-7-(methylthio)-1H-indazol-4-yl)pyrazolo[1,5-a]pyridin-2-yl)cyclopropane-1-carboxamide] | < 100 nM | 200 to 1000 nM | – |
| CN(c1c(F)c(Cl)c(-c2ccn3nc(NC(=O)[C@@H]4C[C@@H]4F)cc3c2)c2cn[nH]c12)C1CCC(O)CC1 (stereo partly drawn) [Example 503, (1S,2S)-N-(5-(5-chloro-6-fluoro-7-((4-hydroxycyclohexyl)(methyl)amino)-1H-indazol-4-yl)pyrazolo[1,5-a]pyridin-2-yl)-2-fluorocyclopropane-1-carboxamide] | < 100 nM | 200 to 1000 nM | – |
| CCOc1c(F)c(C)c(-c2ccn3nc(NC(=O)[C@@H]4C[C@@H]4F)cc3c2)c2cn[nH]c12 [Example 509, (1S,2S)-N-(5-(7-ethoxy-6-fluoro-5-methyl-1H-indazol-4-yl)pyrazolo[1,5-a]pyridin-2-yl)-2-fluorocyclopropane-1-carboxamide] | < 100 nM | < 200 nM | 200 to 1000 nM |
| O=C(Nc1cc2cc(-c3c(Cl)c(F)c(SCCO)c4[nH]ncc34)ccn2n1)[C@@H]1C[C@@H]1F [Example 520, (1S,2S)-N-(5-(5-chloro-6-fluoro-7-((2-hydroxyethyl)thio)-1H-indazol-4-yl)pyrazolo[1,5-a]pyridin-2-yl)-2-fluorocyclopropane-1-carboxamide] | < 100 nM | 200 to 1000 nM | – |
| CCc1c(F)c(SCC(=O)NC)c2[nH]ncc2c1-c1ccn2nc(NC(=O)[C@@H]3C[C@@H]3F)cc2c1 [Example 521, (1S,2S)-N-(5-(5-ethyl-6-fluoro-7-((2-(methylamino)-2-oxoethyl)thio)-1H-indazol-4-yl)pyrazolo[1,5-a]pyridin-2-yl)-2-fluorocyclopropane-1-carboxamide bis(2,2,2-trifluoroacetate)] | < 100 nM | < 200 nM | < 200 nM |
| Cc1c(F)c(SCCO)c2[nH]ncc2c1-c1ccn2nc(NC(=O)[C@@H]3C[C@@H]3F)cc2c1 [Example 523, (1S,2S)-2-fluoro-N-(5-(6-fluoro-7-((2-hydroxyethyl)thio)-5-methyl-1H-indazol-4-yl)pyrazolo[1,5-a]pyridin-2-yl)cyclopropane-1-carboxamide] | < 100 nM | < 200 nM | – |
| CCNc1c(F)c(CC)c(-c2ccn3nc(NC(=O)[C@@H]4C[C@@H]4F)cc3c2)c2cn[nH]c12 [Example 524, (1S,2S)-N-(5-(5-ethyl-7-(ethylamino)-6-fluoro-1H-indazol-4-yl)pyrazolo[1,5-a]pyridin-2-yl)-2-fluorocyclopropane-1-carboxamide] | < 100 nM | < 200 nM | < 200 nM |
| CCc1c(F)c(N(C)CC)c2[nH]ncc2c1-c1ccn2nc(NC(=O)[C@@H]3C[C@@H]3F)cc2c1 [Example 525, (1S,2S)-N-(5-(5-ethyl-7-(ethyl(methyl)amino)-6-fluoro-1H-indazol-4-yl)pyrazolo[1,5-a]pyridin-2-yl)-2-fluorocyclopropane-1-carboxamide] | < 100 nM | < 200 nM | 200 to 1000 nM |

Next, values leading:

| IC50 (recombinant human HPK1) | EC50 [1, 2] | EC50 [1, 3] | SMILES |
| --- | --- | --- | --- |
| < 100 nM | < 200 nM | – | CCc1c(F)c(SC)c2[nH]ncc2c1-c1ccc2nc(NC(=O)[C@@H]3C[C@@H]3F)cn2c1 [Example 293, (1S,2S)-N-(6-(5-ethyl-6-fluoro-7-(methylthio)-1H-indazol-4-yl)imidazo[1,2-a]pyridin-2-yl)-2-fluorocyclopropane-1-carboxamide] |
| < 100 nM | < 200 nM | 200 to 1000 nM | CSc1c(F)cc2[nH]ncc2c1-c1ccc2nc(NC(=O)[C@@H]3C[C@@H]3F)cn2c1 [Example 296, (1S,2S)-2-fluoro-N-(6-(6-fluoro-5-(methylthio)-1H-indazol-4-yl)imidazo[1,2-a]pyridin-2-yl)cyclopropane-1-carboxamide] |
| < 100 nM | < 200 nM | < 200 nM | CSc1c(F)c(SC)c2[nH]ncc2c1-c1ccc2nc(NC(=O)[C@@H]3C[C@@H]3F)cn2c1 [Example 297, (1S,2S)-2-fluoro-N-(6-(6-fluoro-5,7-bis(methylthio)-1H-indazol-4-yl)imidazo[1,2-a]pyridin-2-yl)cyclopropane-1-carboxamide] |
| < 100 nM | 200 to 1000 nM | > 1000 nM | CC(=O)N(C)c1c(F)c(Cl)c(-c2ccc3nc(NC(=O)[C@@H]4C[C@@H]4F)cn3c2)c2cn[nH]c12 [Example 316, (1S,2S)-N-(6-(5-chloro-6-fluoro-7-(N-methylacetamido)-1H-indazol-4-yl)imidazo[1,2-a]pyridin-2-yl)-2-fluorocyclopropane-1-carboxamide] |
| < 100 nM | 200 to 1000 nM | – | CN(C)C(=O)c1c(F)c(Cl)c(-c2ccc3nc(NC(=O)[C@@H]4C[C@@H]4F)cn3c2)c2cn[nH]c12 [Example 320, 5-chloro-6-fluoro-4-(2-((1S,2S)-2-fluorocyclopropane-1-carboxamido)imidazo[1,2-a]pyridin-6-yl)-N,N-dimethyl-1H-indazole-7-carboxamide] |
| < 100 nM | < 200 nM | 200 to 1000 nM | CCN(C)c1c(F)c(SC)c(-c2ccc3nc(NC(=O)[C@@H]4C[C@@H]4F)cn3c2)c2cn[nH]c12 [Example 324, (1S,2S)-N-(6-(7-(ethyl(methyl)amino)-6-fluoro-5-(methylthio)-1H-indazol-4-yl)imidazo[1,2-a]pyridin-2-yl)-2-fluorocyclopropane-1-carboxamide] |
| < 100 nM | 200 to 1000 nM | 200 to 1000 nM | CCc1c(F)c(N(C)CC)c2[nH]ncc2c1-c1ccc2nc(NC(=O)[C@@H]3C[C@@H]3F)cn2c1 [Example 326, (1S,2S)-N-(6-(5-ethyl-7-(ethyl(methyl)amino)-6-fluoro-1H-indazol-4-yl)imidazo[1,2-a]pyridin-2-yl)-2-fluorocyclopropane-1-carboxamide] |
| < 100 nM | < 200 nM | 200 to 1000 nM | CN(C)c1c(F)c(Cl)c(-c2ccc3nc(NC(=O)C4CC4)cn3c2)c2cn[nH]c12 [Example 327, N-(6-(5-chloro-7-(dimethylamino)-6-fluoro-1H-indazol-4-yl)imidazo[1,2-a]pyridin-2-yl)cyclopropanecarboxamide] |
| < 100 nM | 200 to 1000 nM | 200 to 1000 nM | Cc1c(F)c(C(=O)N(C)C)c2[nH]ncc2c1-c1ccc2nc(NC(=O)[C@@H]3C[C@@H]3F)cn2c1 [Example 329, 6-fluoro-4-(2-((1S,2S)-2-fluorocyclopropane-1-carboxamido)imidazo[1,2-a]pyridin-6-yl)-N,N,5-trimethyl-1H-indazole-7-carboxamide] |
| < 100 nM | 200 to 1000 nM | 200 to 1000 nM | CN(C)c1c(F)c(Cl)c(-c2ccc3nc(NC(=O)[C@H]4C[C@@H]4F)cn3c2)c2cn[nH]c12 [Example 332, (1R,2S)-N-(6-(5-chloro-7-(dimethylamino)-6-fluoro-1H-indazol-4-yl)imidazo[1,2-a]pyridin-2-yl)-2-fluorocyclopropane-1-carboxamide] |
| < 100 nM | 200 to 1000 nM | 200 to 1000 nM | CN(C)c1c(F)c(Cl)c(-c2ccc3nc(NC(=O)[C@@H]4C[C@H]4F)cn3c2)c2cn[nH]c12 [Example 333, (1S,2R)-N-(6-(5-chloro-7-(dimethylamino)-6-fluoro-1H-indazol-4-yl)imidazo[1,2-a]pyridin-2-yl)-2-fluorocyclopropane-1-carboxamide] |
